For the assay, the target named is T1, Prostaglandin G/H synthase 2 (Homo sapiens, UniProt P35354).
T1 sequence (P35354 whole entry): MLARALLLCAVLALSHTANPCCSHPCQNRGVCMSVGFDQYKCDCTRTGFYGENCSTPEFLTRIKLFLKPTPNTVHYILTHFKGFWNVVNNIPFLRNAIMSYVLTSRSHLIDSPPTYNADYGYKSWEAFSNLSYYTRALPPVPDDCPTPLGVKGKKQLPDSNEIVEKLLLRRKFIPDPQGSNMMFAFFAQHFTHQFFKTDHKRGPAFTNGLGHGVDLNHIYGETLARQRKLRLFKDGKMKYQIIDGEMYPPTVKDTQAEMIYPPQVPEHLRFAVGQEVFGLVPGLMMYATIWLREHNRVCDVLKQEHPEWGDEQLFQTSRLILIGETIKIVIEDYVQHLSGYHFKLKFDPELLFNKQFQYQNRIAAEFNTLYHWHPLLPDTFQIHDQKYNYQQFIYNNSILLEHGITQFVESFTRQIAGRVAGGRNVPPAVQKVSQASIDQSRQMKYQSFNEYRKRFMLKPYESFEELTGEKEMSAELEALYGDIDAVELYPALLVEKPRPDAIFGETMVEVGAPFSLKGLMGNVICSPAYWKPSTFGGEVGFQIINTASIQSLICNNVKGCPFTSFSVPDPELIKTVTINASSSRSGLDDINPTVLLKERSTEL
Nature of the assay: Inhibition of COX2 (unknown origin) using arachidonic acid as substrate pretreated for 10 mins followed by substrate addition and measured after 2 mins by ELISA. For orientation: In an ELISA, binding on a coated surface is turned into a signal by an enzyme label.

The IC50 is the concentration needed to halve the response being measured. For `COc1ccc(-c2cc(COC(=O)COc3cc(O)c4c(=O)cc(-c5ccccc5)oc4c3)nn2-c2ccc(C)cc2)cc1`, the IC50 came to 230 nM.

(Values after ChEMBL document CHEMBL4229460, “Design and biological evaluation of novel hybrids of 1, 5-diarylpyrazole and Chrysin for selective COX-2 inhibition” (Bioorg Med Chem, 2018).)
